Results reported in patent US7071180B2, “Certain arylaliphatic and heteroaryl-aliphatic piperazinyl pyrazines and their use in the treatment of serotonin-related diseases” (Biovitrum AB, priority 1999, dated 2006).
Where a name gives a salt, the structure may show the parent alone.

Target: T1, human 5-HT2c receptor (Homo sapiens, UniProt P28335)
T1 construct: expressed in transfected cells
T1 sequence (P28335 33-458): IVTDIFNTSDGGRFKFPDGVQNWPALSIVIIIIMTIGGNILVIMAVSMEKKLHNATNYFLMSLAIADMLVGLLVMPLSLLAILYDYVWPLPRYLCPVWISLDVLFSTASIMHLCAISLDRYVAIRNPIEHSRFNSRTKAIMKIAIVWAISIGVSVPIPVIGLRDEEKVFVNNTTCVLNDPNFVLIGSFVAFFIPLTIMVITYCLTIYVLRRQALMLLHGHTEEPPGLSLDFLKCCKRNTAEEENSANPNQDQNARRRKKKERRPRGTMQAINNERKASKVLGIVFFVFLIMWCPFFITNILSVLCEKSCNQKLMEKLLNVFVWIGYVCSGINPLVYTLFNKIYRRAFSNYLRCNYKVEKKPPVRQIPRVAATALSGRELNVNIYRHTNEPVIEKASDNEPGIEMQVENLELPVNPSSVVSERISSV
Experiment: 5-HT2c receptor affinity assay (displacement of 3H-labelled 5-HT, Scintillation Proximity Assay)
Conditions: displacement of 3H-5-HT from membranes of transfected HEK293 cells expressing human 5-HT2c receptor; non-specific binding 5 μM mianserin
Experimental: The 5-HT2c receptor affinity of compounds in the Examples was determined in competition experiments, where the ability of each compound in serial dilution to displace ^3H-labelled 5-HT, bound to membranes prepared from a transfected HEK293 cell line stably expressing the human 5-HT2c receptor protein was monitored by Scintillation Proximity Assay technology. Non-specific binding was defined using 5 μM mianserin. Typically, the 5HT2c receptor affinity values (Ki, nM) were in the range of 1 nM to 1500 nM.
Molecule `Cc1nc(OCCOc2ccccc2)c(N2CCNCC2)nc1C` [Example 183, 5,6-Dimethyl-2-(2-phenoxyethoxy)-3-(1-piperazinyl)pyrazine] has a Ki of 10 nM.
Work on `c1cncc(OCCOc2nccnc2N2CCNCC2)c1` [Example 150, 2-(3-Pyridyloxy)ethyl 3-(1-piperazinyl)-2-pyrazinyl ether] yielded a Ki of 50 nM.
`c1cc(OCCOc2nccnc2N2CCNCC2)ccn1` [Example 151, 2-(4-Pyridyloxy)ethyl 3-(1-piperazinyl)-2-pyrazinyl ether] showed a Ki of 185 nM.
Molecule `O=C1CCc2c(OCCOc3nccnc3N3CCNCC3)cccc21` [Example 82, 2-(1-Oxoindanyl-4-yloxy)ethyl 3-(1-piperazinyl)-2-pyrazinyl ether] has a Ki of 116 nM.
Molecule `c1ccc2c(c1)NCC(COc1nc3ccccc3nc1N1CCNCC1)O2` (stereo not shown) [Example 167, 2-(3,4-Dihydro-2H-1,4-benzoxazin-2-ylmethoxy)-3-(1-piperazinyl)quinoxaline] has a Ki of 34 nM.
For `c1ccc2oc(COc3nccnc3N3CCNCC3)cc2c1` [Example 122, 2-(Benzofuran-2-ylmethoxy)-3-(1-piperazinyl)pyrazine], the Ki was 45 nM.
Molecule `C[C@@H]1CNCCN1c1nccnc1OCCOc1cccnc1` [Example 173, (2R)-Methyl-1-{3-[2-(3-pyridinyloxy)ethoxy]-2-pyrazinyl}piperazine] has a Ki of 16 nM.
Work on `NC1CCN(c2nccnc2OCCOc2ccccc2Cl)C1` (stereo not shown) [Example 23, 2-(2-Chlorophenoxy)ethyl 3-(3-amino-1-pyrrolidinyl)-2-pyrazinyl ether] yielded a Ki of 377 nM.
For `C[C@@H]1CNCCN1c1nccnc1OCCOc1cccnc1Cl` [Example 194, (2R)-1-(3-{2-[(2-Chloro-3-pyridinyl)oxy]ethoxy}-2-pyrazinyl)-2-methylpiperazine], the Ki was 5 nM.
With `COc1cc(OC)cc(OCCOc2nccnc2N2CCNCC2)c1` [Example 57, 2-(3,5-Dimethoxyphenoxy)ethyl 3-(1-piperazinyl)-2-pyrazinyl ether] the Ki was 24 nM.
For `c1ccc(CCCOc2nccnc2N2CCNCC2)nc1` [Example 125, 2-(1-piperazinyl)-3-[3-(2-pyridinyl)propoxy]pyrazine], the Ki was 171 nM.
Molecule `c1ccc(COc2cccc(OCCOc3nccnc3N3CCNCC3)c2)cc1` [Example 231, 2-{2-[3-(Benzyloxy)phenoxy]ethoxy}-3-(1-piperazinyl)pyrazine] has a Ki of 12 nM.

System: not given
Experiment: not given
Conditions: not given
Molecule `COCc1cccc(OCCOc2nccnc2N2CCNCC2)c1` (as salt: maleate) [Example 109, 2-{2-[3-(Methoxymethyl)phenoxy]ethoxy}-3-(1-piperazinyl)pyrazine] has a melting point of 114 to 115 °C.
In the case of `COc1ccc(C)cc1OCCOc1nccnc1N1CCNCC1` (as salt: maleate) [Example 144, 2-[2-(2-Methoxy-5-methylphenoxy)ethoxy]-3-(1-piperazinyl)pyrazine], the melting point is reported as 148 to 149 °C.
Molecule `Cc1nc2cc(OCCOc3nccnc3N3CCNCC3)ccc2s1` (as salt: hydrochloride) [Example 143, 2-Methyl-5-(2-{[3-(1-piperazinyl)-2-pyrazinyl]oxy}ethoxy)-1,3-benzothiazole] has a melting point of 188 to 190 °C.
`OCCOc1ccc(OCCOc2nccnc2N2CCNCC2)cc1` (as salt: maleate) [Example 120, 2-[4-(2-{[3-(1-piperazinyl)-2-pyrazinyl]oxy}ethoxy)phenoxy]ethanol] showed a melting point of 127 to 129 °C.
In the case of `Fc1cccc(OCCOc2nccnc2N2CCNCC2)c1` (as salt: maleate) [Example 101, 2-[2-(3-Fluorophenoxy)ethoxy]-3-(1-piperazinyl)pyrazine], the melting point is reported as 141 to 143 °C.
With `c1cnc2ccc(OCCOc3nccnc3N3CCNCC3)cc2c1` (as salt: maleate) [Example 136, 2-(6-Quinolinyloxy)ethyl 3-(1-piperazinyl)-2-pyrazinyl ether] the melting point was 167 to 169 °C.
Molecule `Brc1cccc(OCCOc2nccnc2N2CCNCC2)c1` [Example 37, 2-(3-Bromophenoxy)ethyl 3-(1-piperazinyl)-2-pyrazinyl ether] has a melting point of 62 to 63 °C.
`c1ccc2c(c1)CCC(COc1nccnc1N1CCNCC1)O2` (stereo not shown) (as salt: hydrochloride) [Example 133, 2-(3,4-Dihydro-2H-chromen-2-ylmethoxy)-3-(1-piperazinyl)pyrazine] showed a melting point of 170 to 175 °C.

Target: T2, 5-HT2c receptor (Mus musculus, UniProt P34968)
T2 construct: mice that express the normal 5-HT2c receptor; host or cells: mice (in vivo)
T2 sequence (P34968 33-459): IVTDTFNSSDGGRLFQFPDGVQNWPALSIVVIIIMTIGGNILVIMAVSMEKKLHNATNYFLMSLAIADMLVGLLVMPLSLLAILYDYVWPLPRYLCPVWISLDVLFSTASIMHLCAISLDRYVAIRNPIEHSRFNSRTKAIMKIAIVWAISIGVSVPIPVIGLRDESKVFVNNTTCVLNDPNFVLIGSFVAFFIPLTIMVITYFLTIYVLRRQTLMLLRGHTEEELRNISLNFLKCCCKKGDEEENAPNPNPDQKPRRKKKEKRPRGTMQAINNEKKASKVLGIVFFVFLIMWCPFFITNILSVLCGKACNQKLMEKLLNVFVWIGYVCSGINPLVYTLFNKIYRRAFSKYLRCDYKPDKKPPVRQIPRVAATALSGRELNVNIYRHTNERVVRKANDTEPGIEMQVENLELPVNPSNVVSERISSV
Experiment: not given
Conditions: mice that express the normal 5-HT2c receptor; cited from earlier work
For `Clc1cccc(N2CCNCC2)c1` [mCPP, m-chlorophenylpiperazine], the body weight effect is given as “causes weight loss”.

System: 5-HT2c receptor
Experiment: not given
Conditions: mice expressing the mutated inactive form of the 5-HT2c receptor; cited from earlier work
In the case of `Clc1cccc(N2CCNCC2)c1` [mCPP, m-chlorophenylpiperazine], the body weight effect is given as “lacks activity”.

System: not given
Experiment: not given
Conditions: controlled studies; cited from earlier work
In the case of `CNCCC(Oc1ccc(C(F)(F)F)cc1)c1ccccc1` (stereo not shown) [fluoxetine], the body weight effect is listed as “weight reduction”.
For `CCN[C@@H](C)Cc1cccc(C(F)(F)F)c1` [dexfenfluramine], the body weight effect is listed as “weight reduction”.

Same assay, conditions: obese subjects, after 2 weeks of treatment; cited from earlier work
For `Clc1cccc(N2CCNCC2)c1` [mCPP, m-chlorophenylpiperazine], the body weight effect is given as “slight but sustained reduction in body weight”.
